Laboratory results published in patent US20210292347A1, “DIHETEROCYCLIC TRIAZINONE NUCLEOSIDE ANALOGS AND THEIR USE FOR MEDICATION” (priority 2020, published 2021).
In brackets after ≈: the same amount, converted by molar mass. Entries after “also recorded” stand apart in the source; their conditions may differ. Read-outs that look alike come from different tables or passages of the source.

Key:
mice sarcoma S180 = assay: Growth inhibition of S180 sarcoma in mice; format: in vivo, Kunming healthy mice; details: for in-vivo anti-tumor efficacy, statistical significance (in words): S180 sarcoma in mice, doses and routes of Table 3
[1] = tested on: human breast cancer cell line MCF7; assay: cells; format: cell-based
Protocol: (§1) Cell lines: Human pancreatic cancer cell line Panc-1, human colorectal cancer cell line HT29, human lung cancer cell line NCI-H460 and human breast cancer cell line MCF7; the medium: s DMEM (Gibco BRL), containing 10% fetal calf serum (Gibco BRL) and 2 mM L-glutamine (Gibco BRL).
(§2) Test samples: example compounds 7, 15, 82, 89, 116 and 135. The samples were dissolved in dimethyl sulfoxide (DMSO, Sigma, United States) and medium was added to the final concentration of 0.5%. Cyclophosphamide ware as positive control (Aldrich, United States, purity>96%).
(§3) General Method: cells were digested with trypsin and dispersed into single cells in the medium containing penicillin (25 U/ml) and streptomycin (25 μg/mL). The cells were seeded in 96-well culture plates (Corning Incorporated), at 37° C., with 5% CO2 present for 24 hours. The culture medium was removed, […] test compounds were added, cultured for 48 hours. Culture medium was removed and […] (MTT, USA Sigma products) was added. The result was assayed by SK601-based microplate reader (Japan Seikagaku company's products), 570 nm/630 nm optical density (OD). Cell viability determined by the formula: (Experimental group OD/control OD)×100%; CTX and the positive control subjects treated in the same material simultaneously.

[2] = tested on: human colorectal cancer cell line HT29; assay: cells; format: cell-based; details: for IC50: Homo sapiens; for anti-proliferative effect on HT29 (in words): colorectal cancer
Protocol: as §1, §2, §3

[3] = tested on: Human pancreatic cancer cell line Panc-1; assay: cells; format: cell-based; details: for IC50: Homo sapiens, read-out: IC50 and 95% confidence limit, anti-proliferative effect on Panc-1
Protocol: as §1, §2, §3

[4] = tested on: human lung cancer cell line NCI-H460; assay: cells; format: cell-based; details: for IC50: Homo sapiens; for inhibitory effect on NCI-H460 cells (in words): lung cancer
Protocol: as §1, §2, §3

[5] = Mus musculus, S-180, mice, iv, read-out: Inhibition rate (%) S180 sarcoma
[6] = NCI-H460, 48 h, read-out: IC50 Lung cancer NCI-H460
[7] = MCF7, MTT, 48 hours, unit inferred, read-out: IC50 with 95% confidence limits, MCF7 cells
[8] = MCF7, MTT, cultured for 48 hours, value (95% confidence limit), Table 2, read-out: IC50 Breast cancer MCF7
[9] = HT-29, MTT, 48 hours, read-out: IC50 and 95% confidence limit, anti-proliferative effect on HT29
[10] = HT-29, MTT, cultured for 48 hours, value (95% confidence limit), Table 2, read-out: IC50 Colorectal cancer HT-29
[11] = NCI-H460, MTT, 48 hours, unit inferred, read-out: IC50 and 95% confidence limits, NCI-H460 cells
[12] = NCI-H460, MTT, cultured for 48 hours, value (95% confidence limit), Table 2, read-out: IC50 Lung cancer NCI-H460
[13] = Mus musculus, S-180, mice, ip, 100 mg/kg, read-out: Inhibition rate (%) S180 sarcoma
[14] = Mus musculus, S-180, mice, ip, read-out: Inhibition rate (%) S180 sarcoma

## CCOC(=O)c1nn(O)c2c(=O)n(C3OC(COC(C(=O)O)P(NC(C)C)OCC#N)C(O)C3O)nnc12 (stereo not drawn) [Example 116, 2-((cyanomethoxy)(isopropylamino)phosphino)-2-((5-(7-(ethoxycarbonyl)-5-hydroxy-4-oxo-4,5-dihydro-3H-pyrazolo[4,3-d][1,2,3]triazin-3-yl)-3,4-dihydroxytetrahydrofuran-2-yl)methoxy)acetic acid]
Mice sarcoma S180; [5]
  inhibition in vivo at 50 mg/kg: < 40%
Mice sarcoma S180
  in-vivo anti-tumor efficacy, statistical significance (in words): statistically significant
[1]; MCF7, 48 h, read-out: IC50 Breast cancer MCF7
  IC50: 12.9 µM
[1]; MCF7, 48 h, read-out: IC50 with 95% confidence limits, MCF7 cells
  IC50: 12.9 µM
[2]; HT-29, 48 h, read-out: IC50 Colorectal cancer HT-29
  IC50: 2.68 µM
[2]; HT-29, 48 h, read-out: IC50 and 95% confidence limit, anti-proliferative effect on HT29
  IC50: 2.68 µg/mL
[2]
  anti-proliferative effect on HT29 (in words): the strongest; also recorded: higher inhibition activity
[3]; PANC-1, 48 h
  IC50: 2.19 µg/mL (≈ 3.91 µM)
[3]; pancreatic cancer
  anti-proliferative effect on Panc-1 (in words): a strong anti-proliferative effect, better than CTX; also recorded: higher inhibition activity
[4]; [6]
  IC50: 4.62 µM
[4]; NCI-H460, 48 h, read-out: IC50 and 95% confidence limits, NCI-H460 cells
  IC50: 4.62 µM
[4]
  inhibitory effect on NCI-H460 cells (in words): more sensitive to NCI-H460 cells

## CCCc1nn(C)c2c(=O)n(C3OC(COP(=O)(O)OP(=O)(O)OP(=O)(O)O)C(O)C3O)nnc12 (stereo not drawn) [Example 135, (3,4-dihydroxy-5-(5-methyl-4-oxo-7-propyl-4,5-dihydro-3H-pyrazolo[4,3-d][1,2,3]triazin-3-yl)tetrahydrofuran-2-yl)methyl tetrahydrogen triphosphate]
Mice sarcoma S180; [5]
  inhibition in vivo at 25 mg/kg: < 40%
Mice sarcoma S180
  in-vivo anti-tumor efficacy, statistical significance (in words): statistically significant
[1]; [7]
  IC50: 5.7 µM
[1]; [8]
  IC50: 5.7 µM
[2]; [9]
  IC50: 18 µg/mL
[2]; [10]
  IC50: 18 µM
[2]
  anti-proliferative effect on HT29 (in words): relatively weak
[3]; PANC-1, MTT, 48 hours
  IC50: 53.5 µg/mL
[4]; [11]
  IC50: 14 µM
[4]; [12]
  IC50: 14 µM

## CCOC(=O)c1nn(CO)c2c(=O)n(C3OC3CO)nnc12 (stereo not drawn) [Example 7, ethyl 7-(hydroxymethyl)-2-(3-(hydroxymethyl)oxiran-2-yl)-1-oxo-2,7-dihydro-1H-pyrazolo[4,3-d][1,2,3]triazine-5-carboxylate]
[1]; [7]
  IC50: 6.18 µM
[1]; [8]
  IC50: 6.18 µM
[2]; [9]
  IC50: 18.8 µg/mL
[2]; [10]
  IC50: 18.8 µM
[2]
  anti-proliferative effect on HT29 (in words): relatively weak
[3]; PANC-1, MTT, 48 hours
  IC50: 51.3 µg/mL (≈ 165 µM)
[4]; [11]
  IC50: 5.18 µM
[4]; [12]
  IC50: 5.18 µM
[4]
  inhibitory effect on NCI-H460 cells (in words): more sensitive to NCI-H460 cells

## O=P1(N(CCCl)CCCl)NCCCO1 (stereo not drawn) [CTX, Cyclophosphamide, reference compound]
Mice sarcoma S180; Mus musculus, S-180, mice, iv, 15 mg/kg, read-out: Inhibition rate (%) S180 sarcoma
  inhibition in vivo at 15 mg/kg: < 40%
[1]; MCF7, 48 h, read-out: IC50 and 95% confidence limit, MCF7 cells
  IC50: 0.92 µg/mL
[4]; [6]
  IC50: 4.3 µM
[4]; NCI-H460, 48 h, read-out: IC50 and 95% confidence limit, NCI-H460 cells
  IC50: 4.3 µg/mL

## CCCc1nn(CC(N)=O)c2c(=O)n(C3CSC(CO)O3)nnc12 (stereo not drawn) [Example 95, 2-(3-(2-(hydroxymethyl)-1,3-oxathiolan-5-yl)-4-oxo-7-propyl-3H-pyrazolo[4,3-d][1,2,3]triazin-5(4H)-yl)acetamide]
Mice sarcoma S180; [5]
  inhibition in vivo at 50 mg/kg: < 40%
Mice sarcoma S180
  in-vivo anti-tumor efficacy, statistical significance (in words): statistically significant

## CCCc1nn(O)c2c(=O)n(C3OC(COC(C(=O)O)P(=O)(NC(C)C)NC(C)C)C(O)C3O)nnc12 (stereo not drawn) [Example 103, 2-(bis(isopropylamino)phosphoryl)-2-((3,4-dihydroxy-5-(5-hydroxy-4-oxo-7-propyl-4,5-dihydro-3H-pyrazolo[4,3-d][1,2,3]triazin-3-yl)tetrahydrofuran-2-yl)methoxy)acetic acid]
Mice sarcoma S180; [13]
  inhibition in vivo at 100 mg/kg: < 20%

## N#Cc1nn(C(N)=S)c2c(=O)n(C3OC(CO)C(O)C3O)nnc12 (stereo not drawn) [Example 77, 7-cyano-3-(3,4-dihydroxy-5-(hydroxymethyl)tetrahydrofuran-2-yl)-4-oxo-3H-pyrazolo[4,3-d][1,2,3]triazine-5(4H)-carbothioamide]
Mice sarcoma S180; [13]
  inhibition in vivo at 100 mg/kg: < 40%
Mice sarcoma S180
  in-vivo anti-tumor efficacy, statistical significance (in words): statistically significant

## N#Cc1nn(O)c2c(=O)n(C3OC(CO)C(O)C3O)nnc12 (stereo not drawn) [Example 17, 3-(3,4-dihydroxy-5-(hydroxymethyl)tetrahydrofuran-2-yl)-5-hydroxy-4-oxo-4,5-dihydro-3H-pyrazolo [4,3-d][1,2,3]triazine-7-carbonitrile]
Mice sarcoma S180; [5]
  inhibition in vivo at 25 mg/kg: < 40%
Mice sarcoma S180
  in-vivo anti-tumor efficacy, statistical significance (in words): statistically significant

## CCCc1nn(C)c2c(=O)n(C3CSC(CO)O3)nnc12 (stereo not drawn) [Example 91, 3-(2-(hydroxymethyl)-1,3-oxathiolan-5-yl)-5-methyl-7-propyl-3H-pyrazolo[4,3-d][1,2,3]triazin-4(5H)-one]
Mice sarcoma S180; [14]
  inhibition in vivo at 200 mg/kg: < 40%
Mice sarcoma S180
  in-vivo anti-tumor efficacy, statistical significance (in words): statistically significant

## NC(=O)n1nc(N)c2nnn(C3CSC(CO)O3)c(=O)c21 (stereo not drawn) [Example 98, 7-amino-3-(2-(hydroxymethyl)-1,3-oxathiolan-5-yl)-4-oxo-3H-pyrazolo[4,3-d][1,2,3]triazine-5(4H)-carboxamide]
Mice sarcoma S180; Mus musculus, S-180, mice, ip, 70 mg/kg, read-out: Inhibition rate (%) S180 sarcoma
  inhibition in vivo at 70 mg/kg: < 20%

## Cn1nc(N)c2nnn(C3OC(CO)C(O)C3O)c(=O)c21 (stereo not drawn) [Example 24, 7-amino-3-(3,4-dihydroxy-5-(hydroxymethyl)tetrahydrofuran-2-yl)-5-methyl-3H-pyrazolo [4,3-d][1,2,3]triazin-4(5H)-one]
Mice sarcoma S180; Mus musculus, S-180, mice, ip, 300 mg/kg, read-out: Inhibition rate (%) S180 sarcoma
  inhibition in vivo at 300 mg/kg: < 40%
Mice sarcoma S180
  in-vivo anti-tumor efficacy, statistical significance (in words): statistically significant

## CCOP(=O)(OCC)C(C(=O)O)n1nc(N)c2nnn(C3CCC(CO)O3)c(=O)c21 (stereo not drawn) [Example 83, 2-(7-amino-3-(5-(hydroxymethyl)tetrahydrofuran-2-yl)-4-oxo-3H-pyrazolo[4,3-d][1,2,3]triazin-5(4H)-yl)-2-(diethoxyphosphoryl)acetic acid]
Mice sarcoma S180; [5]
  inhibition in vivo at 20 mg/kg: < 20%

## CCOC(=O)c1nn(CO)c2c(=O)n(C3OC(CO)C(O)C3O)nnc12 (stereo not drawn) [Example 30, ethyl 3-(3,4-dihydroxy-5-(hydroxymethyl)tetrahydrofuran-2-yl)-5-(hydroxymethyl)-4-oxo-4,5-dihydro-3H-pyrazolo [4,3-d][1,2,3]triazine-7-carboxylate]
Mice sarcoma S180; Mus musculus, S-180, mice, ip, 400 mg/kg, read-out: Inhibition rate (%) S180 sarcoma
  inhibition in vivo at 400 mg/kg: < 40%
Mice sarcoma S180
  in-vivo anti-tumor efficacy, statistical significance (in words): statistically significant

## CN(C)CCC(=O)Nc1nn(O)c2c(=O)n(C3OC(CO)C(O)C3O)nnc12 (stereo not drawn) [Example 16, N-(3-(3,4-dihydroxy-5-(hydroxymethyl)tetrahydrofuran-2-yl)-5-hydroxy-4-oxo-4,5-dihydro-3H-pyrazolo[4,3-d][1,2,3]triazin-7-yl)-3-(dimethylamino) propanamide]
Mice sarcoma S180; mice, ip, 100 mg/kg
  Inhibition rate (%) S180 sarcoma: + (+ represent of Inhibition rate % <20)

## CCCc1nn(C(N)=S)c2c(=O)n(C3CCC(CO)O3)nnc12 (stereo not drawn) [Example 86, 3-(5-(hydroxymethyl)tetrahydrofuran-2-yl)-4-oxo-7-propyl-3H-pyrazolo[4,3-d][1,2,3]triazine-5(4H)-carbothioamide]
Mice sarcoma S180; [14]
  inhibition in vivo at 200 mg/kg: < 20%

## Cn1nc([N+](=O)[O-])c2nnn(C3OC(CO)C(O)C3O)c(=O)c21 (stereo not drawn) [Example 28, 3-(3,4-dihydroxy-5-(hydroxymethyl)tetrahydrofuran-2-yl)-5-methyl-7-nitro-3H-pyrazolo [4,3-d][1,2,3]triazin-4(5H)-one]
Mice sarcoma S180; [5]
  inhibition in vivo at 20 mg/kg: < 40%
Mice sarcoma S180
  in-vivo anti-tumor efficacy, statistical significance (in words): statistically significant
